The target of assay [1] is T1, human MC4-R (Homo sapiens, UniProt P32245).
T1 construct: expressed in transfected cells; host or cells: HEK293 T-REx (tetracycline-regulated, Invitrogen); cell line from Palatin Technologies with license from the University of Michigan
Nature of the assay: Competitive inhibition binding assay with [I125]-NDP-α-MSH or Eu-NDP-α-MSH, membranes of HEK-293 cells expressing recombinant hMC4-R. The following applies: human MC4-R; averages of all comparable assays; read-out: Ki. The protocol:
A competitive inhibition binding assay was performed using membrane homogenates prepared from HEK-293 cells that express recombinant hMC4-R, hMC3-R, or hMC5-R, and from B-16 mouse melanoma cells (containing endogenous MC1-R). In some instances, HEK-293 cells that express recombinant hMC1-R were employed. In the examples that follow, all MC3-R, MC4-R and MC5-R values are for human recombinant receptors. […] After incubation for 60 minutes at 37° C., the assay mixture was filtered and the membranes washed three times with ice-cold buffer. Filters were dried and counted in a gamma counter for bound radioactivity. […] Maximal specific binding (100%) was defined as the difference in radioactivity (cpm) bound to cell membranes in the absence and presence of 1 μM NDP-α-MSH. […] Ki values for test peptides of the present invention were determined using Graph-Pad Prism® curve-fitting software.
Alternatively, a competitive inhibition binding assay was performed employing Eu-NDP-α-MSH (PerkinElmer Life Sciences catalog No. AD0225) with determination by time-resolved fluorometry (TRF) of the lanthanide chelate. […] After incubation for 90 minutes at 37° C., the reaction was stopped by filtration over AcroWell 96-well filter plates (Pall Life Sciences). The filter plates were washed 4 times with 200 μL of ice-cold phosphate-buffered saline. DELFIA Enhancement solution (PerkinElmer Life Sciences) was added to each well. […] Each assay was conducted in duplicate and mean values were utilized. Ki values were determined by curve-fitting with Graph-Pad Prism® software using a one-site fixed-slope competition binding model.

In assay [2] the target is T1, human MC4-R. Nature of the assay: cAMP functional assay in HEK-293 T-REx cells expressing human MC4-R, induced with doxycycline 0.1 ng/mL (low density). The class given is cell-based. Particulars: doxycycline 0.1 ng/mL, averages of all comparable assays; for Emax: HEK293-T-REx, maximal cAMP stimulation, NDP-α-MSH = 100%, read-out: Emax; for EC50: human MC4-R cAMP assay, read-out: Ec50. The source says: A HEK293 cell line transfected with human MC4-R (from Palatin Technologies, US, with license from the University of Michigan) was used. The human MC4-R was introduced to HEK293 by using the T-REx™ System, Invitrogen. The T-REx™ System employs a tetracycline-regulated mammalian expression system that uses regulatory elements from the E. coli Tn10-encoded tetracycline (Tet) resistance operon. By use of the T-REx™ System, expression of the gene of interest, the human MC4-R gene, is repressed in the absence of tetracycline or doxycycline and induced in the presence of tetracycline or doxycycline (see T-REx™ System Manual, published by Invitrogen).
Cells were then counted and volume was adjusted to 5×10^4 cells per 200 μL.
The cells were then dispensed into 96-well plates (BD 353916) in 198 μL (about 5×10^4) cells/well and incubated for 10 minutes at 37° C. The compound to be tested was diluted with DMSO to a final concentration of 1 mM. Serial dilution was prepared in polypropylene removable 12-well library tube strips (VWR cat #83009-682). 120 μL of the 1 mM compound stock was pipetted in the second column on the plate.
2 μL of the standard, [Nle^4, D-Phe^7]alpha-Melanocyte Stimulating Hormone (NDP-α-MSH), or compound was added to the 96-well plate using the Janus robotic system. All assay samples were run in duplicate (i.e. each sample was in two low dox and two high dox plates, respectively). The plates were gently shaken and incubated for 15 minutes at 37° C. The reaction was stopped by adding 15 μL of lysis buffer per well and the plates were shakened for 30 minutes at room temperature.
Agonist stimulation of the MC4-R activates adenylate cyclase, which is an enzyme that catalyses the formation 3′,5′-cyclic adenosine monophosphate (cAMP) from adenosine triphosphate (ATP). […] Fluoresence ratios were then calculated as described in the CisBio HTRF kit, with GraphPad Prism software used to plot the change in fluorescence percent values versus cAMP concentration using the variable slope dose response curve and, based on calculated cAMP concentrations, to determine EC50 and Emax values. […]

The text below walks through data of US20120077957A1, “Lactam-Bridged Melanocortin Receptor-Specific Peptides” (PALATIN TECHNOLOGIES, INC., priority 2009, published 2012).

Bridge positions count the residues as written; N and C are the ends. Square brackets hold non-standard residues; d marks the D form. Peptide text beside a SMILES is read from it. Orn = NCCC[C@H](N)C(=O)O

T1 sequence (P32245 whole entry): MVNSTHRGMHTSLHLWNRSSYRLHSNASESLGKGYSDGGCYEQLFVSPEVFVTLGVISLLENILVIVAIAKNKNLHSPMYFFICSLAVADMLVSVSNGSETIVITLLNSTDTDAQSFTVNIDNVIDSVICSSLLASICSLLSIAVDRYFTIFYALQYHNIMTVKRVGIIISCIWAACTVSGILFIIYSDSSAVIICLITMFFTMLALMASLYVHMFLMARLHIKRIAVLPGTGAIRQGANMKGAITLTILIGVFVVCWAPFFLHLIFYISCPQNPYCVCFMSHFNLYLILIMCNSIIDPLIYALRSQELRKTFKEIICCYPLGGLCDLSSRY

As usually defined, the Ki is the equilibrium dissociation constant of an inhibitor or competing ligand from its target. The Emax is the greatest response seen or fitted, relative to the assay's reference. Usually EC50 stands for the concentration that produces a half-maximal response. In the case of `CCCC[C@H](NC(C)=O)C(=O)N[C@H]1CCC(=O)NCCC[C@@H](C(N)=O)NC(=O)[C@H](Cc2c[nH]c3ccccc23)NC(=O)[C@H](CCCNC(=N)N)NC(=O)[C@@H](Cc2ccccc2)NC(=O)[C@H](Cc2c[nH]cn2)NC1=O` [No. 2, Ac-Nle-cyclo(Glu-His-D-Phe-Arg-Trp-Orn)-NH2], the Ki in assay [1] was determined as 0.1 nM. Also, in assay [2], the maximum response (Emax) was 93% and the EC50 amounted to 0.1 nM.

For `CC(=O)N[C@@H](CCCNC(=N)N)C(=O)N[C@H]1CCC(=O)NCCC[C@@H](C(N)=O)NC(=O)[C@H](Cc2c[nH]c3ccccc23)NC(=O)[C@H](CCCNC(=N)N)NC(=O)[C@@H](Cc2ccccc2)NC(=O)[C@H](Cc2c[nH]cn2)NC1=O` [No. 4, Ac-Arg-cyclo(Glu-His-D-Phe-Arg-Trp-Orn)-NH2] (Ac-REH[dF]RW[Orn]-NH2; lactam 2-7), the Ki in assay [1] worked out at 1 nM. Moreover, in assay [2], the Emax is 83% and the EC50 came to 0.2 nM.

For `CC(=O)N[C@@H](CCCNC(=N)N)C(=O)N[C@H]1CCC(=O)NCCC[C@@H](C(N)=O)NC(=O)[C@H](Cc2c[nH]c3ccccc23)NC(=O)[C@H](CCCNC(=N)N)NC(=O)[C@@H](Cc2ccccc2)NC(=O)[C@H](CCN)NC1=O` [No. 6, Ac-Arg-cyclo(Glu-Dab-D-Phe-Arg-Trp-Orn)-NH2], in assay [1], the Ki came to 4 nM. In addition, in assay [2], the Emax came out at 94% and the EC50 turned out to be 0.3 nM.

As for `CC(=O)N[C@@H](CCCNC(=N)N)C(=O)N[C@H]1CCC(=O)NCCC[C@@H](C(N)=O)NC(=O)[C@H](Cc2c[nH]c3ccccc23)NC(=O)[C@H](CCCNC(=N)N)NC(=O)[C@@H](Cc2ccccc2)NC(=O)[C@H](CCCN)NC1=O` [No. 8, Ac-Arg-cyclo(GIu-Orn-D-Phe-Arg-Trp-Orn)-NH2], the inhibitory constant (Ki) in assay [1] is 9 nM. Besides, in assay [2], the Emax was found to be 95% and the EC50 was 0.4 nM.

On to `CC(=O)N[C@@H](CCCNC(=N)N)C(=O)N[C@H]1CCC(=O)NCCC[C@@H](C(N)=O)NC(=O)[C@H](Cc2c[nH]c3ccccc23)NC(=O)[C@H](CCCNC(=N)N)NC(=O)[C@@H](Cc2ccccc2)NC(=O)[C@H](CCC(N)=O)NC1=O` [No. 12, Ac-Arg-cyclo(Glu-Gln-D-Phe-Arg-Trp-Orn)-NH2], for which the Ki in assay [1] stood at 3 nM. In addition, in assay [2], the Emax was found to be 96% and the EC50 came out at 6 nM.

Turning to `CC(=O)N[C@@H](CCCNC(=N)N)C(=O)N[C@H]1CCC(=O)NCCC[C@@H](C(N)=O)NC(=O)[C@H](Cc2c[nH]c3ccccc23)NC(=O)[C@H](CCCNC(=N)N)NC(=O)[C@@H](Cc2ccccc2)NC(=O)[C@H](CCS(C)(=O)=O)NC1=O` [No. 13, Ac-Arg-cyclo(Glu-Met(O2)-D-Phe-Arg-Trp-Orn)-NH2], in assay [1], the Ki worked out at 8 nM. In addition, in assay [2], the Emax turned out to be 71% and the EC50 came to 5 nM.

On to `CC(=O)N[C@@H](CCCNC(=N)N)C(=O)N[C@H]1CCC(=O)NCCC[C@@H](C(=O)O)NC(=O)[C@H](Cc2c[nH]c3ccccc23)NC(=O)[C@H](CCCNC(=N)N)NC(=O)[C@@H](Cc2ccccc2)NC(=O)[C@H](COCc2ccccc2)NC1=O` [No. 17, Ac-Arg-cyclo(Glu-Ser(Bzl)-D-Phe-Arg-Trp-Orn)-OH], for which the inhibition constant (Ki) in assay [1] was found to be 6 nM. Moreover, in assay [2], the Emax was found to be 55% and the EC50 was determined as 2 nM.

On to `CC(=O)N[C@@H](CCCNC(=N)N)C(=O)N[C@H]1CCC(=O)NCCC[C@@H](C(N)=O)NC(=O)[C@H](Cc2c[nH]c3ccccc23)NC(=O)[C@H](CCCNC(=N)N)NC(=O)[C@@H](Cc2ccccc2)NC(=O)[C@@H]2C[C@@H](N)CN2C1=O` [No. 32, Ac-Arg-cyclo(Glu-Pro(4R-NH2)-D-Phe-Arg-Trp-Orn)-NH2], for which the Ki in assay [1] is 6 nM. In assay [2], the maximum response (Emax) was found to be 55% and the EC50 is 8 nM.

Consider `CC(=O)N[C@@H](CCCNC(=N)N)C(=O)N[C@H]1CC(=O)NCCCC[C@@H](C(=O)O)NC(=O)[C@H](Cc2c[nH]c3ccccc23)NC(=O)[C@H](CCCNC(=N)N)NC(=O)[C@@H](Cc2ccccc2)NC(=O)[C@H](Cc2c[nH]cn2)NC1=O` [reference compound], for which, in assay [2], the maximum response (Emax) turned out to be 91% and the EC50 was determined as 4 nM.

As for `CC(=O)N[C@@H](CCCNC(=N)N)C(=O)N[C@H]1CC(=O)NCCCC[C@@H](C(N)=O)NC(=O)[C@H](Cc2c[nH]c3ccccc23)NC(=O)[C@H](CCCNC(=N)N)NC(=O)[C@@H](Cc2ccccc2)NC(=O)[C@H](Cc2c[nH]cn2)NC1=O` [reference compound], the Emax in assay [2] amounted to 83%.

With `CC(=O)N[C@@H](CCCNC(=N)N)C(=O)N[C@H]1CC(=O)NCCCC[C@@H](C(=O)O)NC(=O)[C@H](Cc2c[nH]c3ccccc23)NC(=O)[C@H](CCCNC(=N)N)NC(=O)[C@@H](Cc2ccccc2)NC(=O)[C@H](CCN)NC1=O` [reference compound], the Emax in assay [2] is 91%.

`CC(=O)N[C@@H](CCCNC(=N)N)C(=O)N[C@H]1CC(=O)NCCCC[C@@H](C(N)=O)NC(=O)[C@H](Cc2c[nH]c3ccccc23)NC(=O)[C@H](CCCNC(=N)N)NC(=O)[C@@H](Cc2ccccc2)NC(=O)[C@@H]2C[C@@H](O)CN2C1=O` [reference compound]: the maximal response (Emax) in assay [2] amounted to 39%.

As to `CC(=O)N[C@@H](CCCNC(=N)N)C(=O)N[C@H]1CC(=O)NCCCC[C@@H](C(N)=O)NC(=O)[C@H](Cc2c[nH]c3ccccc23)NC(=O)[C@H](CCCNC(=N)N)NC(=O)[C@@H](Cc2ccccc2)NC(=O)[C@H](CCCNC(N)=O)NC1=O` [reference compound], in assay [2], the maximum response (Emax) turned out to be 69%.

`CC(=O)N[C@@H](CCCNC(=N)N)C(=O)N[C@H]1CC(=O)NCCCC[C@@H](C(=O)NC2CC2)NC(=O)[C@H](Cc2c[nH]c3ccccc23)NC(=O)[C@H](CCCNC(=N)N)NC(=O)[C@@H](Cc2ccccc2)NC(=O)[C@H](CCC(N)=O)NC1=O` [reference compound]: in assay [2], the Emax came to 79% and the EC50 worked out at 9 nM.

Regarding `CC(=O)N[C@H](CCCNC(=N)N)C(=O)N[C@H]1CC(=O)NCCCC[C@@H](C(N)=O)NC(=O)[C@H](Cc2c[nH]c3ccccc23)NC(=O)[C@H](CCCNC(=N)N)NC(=O)[C@@H](Cc2ccccc2)NC(=O)[C@H](Cc2c[nH]cn2)NC1=O` [reference compound], in assay [2], the Emax is 89%.

Turning to `CC(=O)N[C@@H](CCCNC(=N)N)C(=O)N[C@H]1CC(=O)NCCCC[C@@H](C(N)=O)NC(=O)[C@H](Cc2c[nH]c3ccccc23)NC(=O)[C@H](CCCNC(=N)N)NC(=O)[C@@H](Cc2ccccc2)NC(=O)[C@@H]2CCCN2C1=O` [reference compound], the Emax in assay [2] turned out to be 43%.

For the compound `CC(=O)N[C@H]1CC(=O)NCCCC[C@@H](C(N)=O)NC(=O)[C@H](Cc2c[nH]c3ccccc23)NC(=O)[C@H](CCCNC(=N)N)NC(=O)[C@@H](Cc2ccccc2)NC(=O)[C@H](CCC(N)=O)NC1=O` [reference compound] (Ac-DQ[dF]RWK-NH2; lactam 1-6), the Emax in assay [2] was determined as 35%.

As to `CC(=O)N[C@@H](CCCNC(=N)N)C(=O)N[C@H]1CC(=O)NCCCC[C@@H](C(N)=O)NC(=O)[C@H](Cc2c[nH]c3ccccc23)NC(=O)[C@H](CCCNC(=N)N)NC(=O)[C@@H](Cc2ccccc2)NC(=O)[C@H](CCCCN)NC1=O` [reference compound] (Ac-RDK[dF]RWK-NH2; lactam 2-7), in assay [2], the maximal effect (Emax) came to 97% and the EC50 came out at 8 nM.

In the case of `CC(=O)N[C@@H](CCCNC(=N)N)C(=O)N[C@H]1CC(=O)NCCCC[C@@H](C(=O)O)NC(=O)[C@H](Cc2c[nH]c3ccccc23)NC(=O)[C@H](CCCNC(=N)N)NC(=O)[C@@H](Cc2ccccc2)NC(=O)[C@H](CC(N)=O)NC1=O` [reference compound] (Ac-RDN[dF]RWK-OH; lactam 2-7), in assay [2], the Emax is 73%.
